Columns and labels:
[1] = system: B. subtilis 168; assay: Bliss interaction score (quartile over a dose matrix) (fitness difference); higher = more antagonism (negative = synergy)
In short: (§1)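 The Bliss score is observed fitness minus expected fitness, where the expected value is the product of single-drug fitness values inferred from combination data. Fitness is OD595 at entry into stationary phase normalised to the plate's robust no-drug mean and capped at 1. Scores are reported as quartiles spanning technical, biological and donor/recipient replicates.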

[2] = system: S. aureus Newman; assay: as above
In short: as §1

[3] = system: S. pneumoniae D39V; assay: as above
In short: as §1

[4] = system: S. aureus DSM 20231; assay: as above
In short: as §1

[5] = system: B. subtilis 168; assay: fitness (endpoint OD595 vs no drug) (fraction); higher = more growth
In short: (§2)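 At 37 °C, bacteria in TSB, LB Lennox or CY were grown in 384-well plates from a starting OD595 of 0.01. OD595 was measured every 30 min for 14 h, with the first reading used as background. Fitness is the optical density at the switch to stationary phase as a fraction of the robust mean of no-drug control wells, capped at 1.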

[6] = system: S. aureus Newman; assay: as above
In short: as §2

[7] = system: S. pneumoniae D39V; assay: as above
In short: as §2

[8] = system: S. aureus DSM 20231; assay: as above
In short: as §2
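For Bliss interaction score (quartile over a dose matrix) in this document: first quartile when negative (synergy) and third quartile when positive (antagonism).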
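For fitness (endpoint OD595 vs no drug) in this document: OD595 on entry to stationary phase over no-drug wells; at most 1.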

Cc1onc(-c2ccccc2)c1C(=O)N[C@@H]1C(=O)N2[C@@H]1SC(C)(C)[C@@H]2C(=O)O [Oxacillin] + CCN(CC)CCOC(=O)c1ccc(N)cc1 [Procaine]
Conditions	Bliss interaction score
[1]	0.0581
[2]	-0.0416
[3]	0.0938
[4]	-0.0703

fitness
Conditions	partner 85.5 µg/mL	partner 171 µg/mL	partner 342 µg/mL
[5], first compound 0.002 µg/mL	0.938	0.932	0.894
[5], first compound 0.004 µg/mL	0.966	0.913	0.911
[5], first compound 0.008 µg/mL	0.963	0.916	0.867
[6], first compound 0.0312 µg/mL	0.686	–	–
[7], first compound 0.01 µg/mL	≥ 1	≥ 1	0.998
[7], first compound 0.02 µg/mL	0.933	0.932	0.925
[7], first compound 0.04 µg/mL	–	–	0.497
[8], first compound 0.0156 µg/mL	0.782	0.916	0.852
[8], first compound 0.0312 µg/mL	0.64	0.738	0.712
[8], first compound 0.0625 µg/mL	0.443	0.513	0.514

fitness, [5], one replicate
Conditions	first compound 0.075 µg/mL	first compound 0.15 µg/mL	first compound 0.3 µg/mL
partner 85.5 µg/mL	0.637	0.0445	0.056
partner 171 µg/mL	0.535	0.0452	0.0565
partner 342 µg/mL	0.577	0.041	0.0536

Cc1onc(-c2ccccc2)c1C(=O)N[C@@H]1C(=O)N2[C@@H]1SC(C)(C)[C@@H]2C(=O)O [Oxacillin] + CN1C2=CC=CC=C2N=C3C1=CC=CC3=O [Pyocyanin]
Conditions	Bliss interaction score
[1]	-0.0582
[2]	-0.0412
[3]	0.188
[4]	-0.0528

Conditions	fitness
[5], first compound 0.002 µg/mL, partner 1.25 µg/mL	0.93
[5], first compound 0.002 µg/mL, partner 2.5 µg/mL	0.891
[5], first compound 0.002 µg/mL, partner 5 µg/mL	0.768
[5], first compound 0.004 µg/mL, partner 1.25 µg/mL	0.918
[5], first compound 0.004 µg/mL, partner 2.5 µg/mL	0.839
[5], first compound 0.004 µg/mL, partner 5 µg/mL	0.703
[5], first compound 0.008 µg/mL, partner 1.25 µg/mL	0.847
[5], first compound 0.008 µg/mL, partner 2.5 µg/mL	0.79
[5], first compound 0.008 µg/mL, partner 5 µg/mL	0.675
[6], first compound 0.0156 µg/mL, partner 1.25 µg/mL	0.744
[6], first compound 0.0156 µg/mL, partner 2.5 µg/mL	0.683
[6], first compound 0.0156 µg/mL, partner 5 µg/mL	0.424
[6], first compound 0.0312 µg/mL, partner 1.25 µg/mL	0.625
[6], first compound 0.0312 µg/mL, partner 2.5 µg/mL	0.596
[6], first compound 0.0312 µg/mL, partner 5 µg/mL	0.336
[6], first compound 0.0625 µg/mL, partner 5 µg/mL	0.305
[7], first compound 0.01 µg/mL, partner 0.325 µg/mL	≥ 1
[7], first compound 0.01 µg/mL, partner 0.65 µg/mL	≥ 1
[7], first compound 0.01 µg/mL, partner 1.3 µg/mL	0.684
[7], first compound 0.02 µg/mL, partner 0.325 µg/mL	0.988
[7], first compound 0.02 µg/mL, partner 0.65 µg/mL	0.979
[7], first compound 0.02 µg/mL, partner 1.3 µg/mL	0.672
[7], first compound 0.04 µg/mL, partner 0.325 µg/mL	0.722
[7], first compound 0.04 µg/mL, partner 0.65 µg/mL	0.781
[7], first compound 0.04 µg/mL, partner 1.3 µg/mL	0.547
[8], first compound 0.0156 µg/mL, partner 1.25 µg/mL	0.761
[8], first compound 0.0156 µg/mL, partner 2.5 µg/mL	0.766
[8], first compound 0.0156 µg/mL, partner 5 µg/mL	0.493
[8], first compound 0.0312 µg/mL, partner 1.25 µg/mL	0.643
[8], first compound 0.0312 µg/mL, partner 2.5 µg/mL	0.635
[8], first compound 0.0312 µg/mL, partner 5 µg/mL	0.468
[8], first compound 0.0625 µg/mL, partner 1.25 µg/mL	0.48
[8], first compound 0.0625 µg/mL, partner 2.5 µg/mL	0.482
[8], first compound 0.0625 µg/mL, partner 5 µg/mL	0.362

fitness, [5], one replicate
Conditions	first compound 0.075 µg/mL	first compound 0.15 µg/mL	first compound 0.3 µg/mL
partner 1.25 µg/mL	0.463	0.0474	0.0657
partner 2.5 µg/mL	0.404	0.0413	0.0539
partner 5 µg/mL	0.145	0.0518	0.0652

Reference: the supplement of paper PMC10627819
